Data on 25 molecules can be found in patent US12643887B2, “Heterocyclic derivatives with cardiomyocyte proliferation activity for treatment of heart diseases” (Tongji University, priority 2019, dated 2026).

One may read the IC50 as the point on the concentration scale where inhibition reaches its midpoint.

This assay deals with T1, human CIT (Homo sapiens, UniProt O14578).
T1 construct: Recombinant human CIT (1-499); GST (N); purchased SignalChem C52-11G; host or cells: Sf9 insect cells
T1 sequence (O14578 1-499): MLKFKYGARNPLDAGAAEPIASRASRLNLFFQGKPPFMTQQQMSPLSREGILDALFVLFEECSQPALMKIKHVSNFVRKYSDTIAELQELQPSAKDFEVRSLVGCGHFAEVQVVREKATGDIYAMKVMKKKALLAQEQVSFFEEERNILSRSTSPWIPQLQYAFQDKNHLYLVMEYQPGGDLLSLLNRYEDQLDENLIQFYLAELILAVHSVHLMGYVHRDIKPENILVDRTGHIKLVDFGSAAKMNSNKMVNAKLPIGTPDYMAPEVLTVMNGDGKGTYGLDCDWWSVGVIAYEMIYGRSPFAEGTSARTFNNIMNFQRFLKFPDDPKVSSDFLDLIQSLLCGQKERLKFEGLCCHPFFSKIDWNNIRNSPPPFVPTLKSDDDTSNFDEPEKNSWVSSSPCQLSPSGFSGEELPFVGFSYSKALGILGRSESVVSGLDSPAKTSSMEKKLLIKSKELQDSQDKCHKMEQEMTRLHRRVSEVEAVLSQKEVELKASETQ
The assay is described as follows: CIT enzyme assay (ADP-Glo). It is filed as biochemical. The following applies: ADP-Glo, ATP 5 μM; read-out: CIT IC50. The protocol:
The ability of compounds to inhibit human CIT kinase activities was determined using a commercially available ADP-Glo™ Kinase Assay kit (Promega, Cat #V9102) according to the manufacturer's protocol.
Recombinant human CIT (1-499) (expressed in Sf9 insect cells with an N-terminal GST tag) was purchased from SignalChem (Cat #C52-11G). Recombinant full length human MBP (expressed in E. Coli cells with an N-terminal GST tag) was purchased from SignalChem (Cat #M42-54G). This assay, run in a 384-well plate format, is a generic method for measuring kinase activities using an ADP-Glo Kinase Assay Kit. The basic assay procedure involves two steps: (1) Enzymatic step: inhibitors are incubated with the kinase and then ATP (included in the ADP-Glo Kinase Assay Kit) and the MBP protein are added to start the enzymatic reaction; (2) Detection step: after the kinase reaction, first ADP-Glo™ Reagent is added to terminate the kinase reaction and deplete the remaining ATP. Second, the Kinase Detection Reagent is added to simultaneously convert ADP to ATP and allow the newly synthesized ATP to be measured using a luciferase/luciferin reaction. The light generated is measured using a luminometer.
Briefly, CIT (20 nM) in the enzymatic buffer solutions (40 mM Tris, pH 7.5, 20 mM MgCl2, 0.1 mg/ml BSA, 50 μM DTT) were mixed with various concentrations of inhibitors (dissolved in 100% DMSO). These solutions were incubated for 30 minutes at 25° C., and subsequently a mixture of substrate peptide and ATP was added with the final peptide and ATP concentrations at 0.05 mg/ml and 5 μM, respectively. The final reaction mixture of enzyme-substrate-ATP-compound was incubated for 90 minutes at 25° C.
Afterwards ADP-Glo™ Reagent was added and the mixture was incubated at 25° C. for 60 minutes. Then Kinase Detection Reagent was added, and the final mixture was incubated at 25° C. for 60 minutes. The luminescence signal of the final solution was measured on an Envision instrument (PerkinElmer). The percent (%) inhibition at each concentration of a compound is calculated relative to the luminescence signal in the Max and Min control wells contained within each assay plate. […] The concentrations and percent inhibition values for a test compound are plotted and the concentration of the compound required to achieve 50% inhibition (IC50) is determined with a four-parameter logistic dose response equation.
For `COc1ccc(N(C)C2=N/C(=C\c3ccc4ncsc4c3)C(=O)N2)cc1` [Example 38, (Z)-5-(benzo[d]thiazol-6-ylmethylene)-2-((4-methoxyphenyl)(methyl)amino)-3,5-dihydro-4H-imidazol-4-one], the IC50 was 1000 to 10000 nM.

For the molecule `CC(C)NC1=N/C(=C\c2ccc3ncsc3c2)C(=O)N1C` [Example 45, (Z)-5-(benzo[d]thiazol-6-ylmethylene)-2-(isopropylamino)-3-methyl-3,5-dihydro-4H-imidazol-4-one], the IC50 was 100 to 1000 nM.

`CN(C1=N/C(=C\c2ccc3c(c2)OCO3)C(=O)N1)c1ccc(N)cc1` [Example 37, (Z)-2-((4-aminophenyl)(methyl)amino)-5-(benzo[d][1,3]dioxol-5-ylmethylene)-3,5-dihydro-4H-imidazol-4-one]: the concentration for half-maximal inhibition (IC50) is above 10000 nM.

Take `O=C1NC(Nc2ccccc2)=N/C1=C\c1ccc2occc2c1` [Example 52, (Z)-5-(benzofuran-5-ylmethylene)-2-(phenylamino)-3,5-dihydro-4H-imidazol-4-one]: the IC50 was above 10000 nM.

For the molecule `O=C1NC(Nc2ccc(Cl)cc2)=N/C1=C\c1ccc2ncsc2c1` [Example 40, (Z)-5-(benzo[d]thiazol-6-ylmethylene)-2-((4-chlorophenyl)amino)-3,5-dihydro-4H-imidazol-4-one], the IC50 lay within 100 to 1000 nM.

Regarding `O=C1NC(Nc2ccc3ncsc3c2)=N/C1=C\c1ccc2c(c1)OCO2` [Example 47, (Z)-5-(benzo[d][1,3]dioxol-5-ylmethylene)-2-(benzo[d]thiazol-6-ylamino)-3,5-dihydro-4H-imidazol-4-one], the IC50 is above 10000 nM.

`O=C1NC(Nc2ccccc2)=N/C1=C\c1ccc2ncccc2c1` [Example 53, (Z)-2-(phenylamino)-5-(quinolin-6-ylmethylene)-3,5-dihydro-4H-imidazol-4-one]: the IC50 is above 10000 nM.

With `NC1=N/C(=C\c2ccc3ncsc3c2)C(=O)N1` [Example 103, (Z)-2-amino-5-(benzo[d]thiazol-6-ylmethylene)-3,5-dihydro-4H-imidazol-4-one], the IC50 fell in the range of 100 to 1000 nM.

As to `CN(C1=N/C(=C\c2ccc3ncsc3c2)C(=O)N1)c1ccc(N)cc1` [Example 44, (Z)-2-((4-aminophenyl)(methyl)amino)-5-(benzo[d]thiazol-6-ylmethylene)-3,5-dihydro-4H-imidazol-4-one], the IC50 was 100 to 1000 nM.

As for `CN(C1=N/C(=C\c2ccc3c(c2)OCO3)C(=O)N1)c1ccccc1` [Example 1, (Z)-5-(benzo[d][1,3]dioxol-5-ylmethylene)-2-(methyl(phenyl)amino)-3,5-dihydro-4H-imidazol-4-one], the IC50 was above 10000 nM.

As for `O=C1NC(Nc2ccccc2)=N/C1=C\c1ccc2ncsc2c1` [Example 6, (Z)-5-(benzo[d]thiazol-6-ylmethylene)-2-(phenylamino)-3,5-dihydro-4H-imidazol-4-one], the IC50 was 100 to 1000 nM.

In the case of `CN(CC1CC1)C1=N/C(=C\c2ccc3c(c2)OCO3)C(=O)N1` [Example 11, (Z)-5-(benzo[d][1,3]dioxol-5-ylmethylene)-2-((cyclopropylmethyl)(methyl)amino)-3,5-dihydro-4H-imidazol-4-one], the IC50 is above 10000 nM.

`COc1ccccc1N(C)C1=N/C(=C\c2ccc3c(c2)OCO3)C(=O)N1` [Example 21, (Z)-5-(benzo[d][1,3]dioxol-5-ylmethylene)-2-((2-methoxyphenyl)(methyl)amino)-3,5-dihydro-4H-imidazol-4-one]: the IC50 was above 10000 nM.

As for `O=C1/C(=C/c2ccc3ncsc3c2)N=C(N(Cc2ccccc2)c2ccccc2)N1Cc1ccccc1` [Example 42, (Z)-5-(benzo[d]thiazol-6-ylmethylene)-3-benzyl-2-(benzyl(phenyl)amino)-3,5-dihydro-4H-imidazol-4-one], the IC50 was above 10000 nM.

With `CN(C1=N/C(=C\c2ccc3ncsc3c2)C(=O)N1)c1ccccc1` [Example 7, (Z)-5-(benzo[d]thiazol-6-ylmethylene)-2-(methyl(phenyl)amino)-3,5-dihydro-4H-imidazol-4-one], the IC50 lay within 100 to 1000 nM.

Regarding `O=C1NC(Nc2ccc3ncsc3c2)=N/C1=C\c1ccc2ncsc2c1` [Example 48, (Z)-2-(benzo[d]thiazol-6-ylamino)-5-(benzo[d]thiazol-6-ylmethylene)-3,5-dihydro-4H-imidazol-4-one], the IC50 is 100 to 1000 nM.

Consider `CN(C1=N/C(=C\c2ccc3c(c2)OCO3)C(=O)N1)c1ccc2ncsc2c1` [Example 70, (Z)-5-(benzo[d][1,3]dioxol-5-ylmethylene)-2-(benzo[d]thiazol-6-yl(methyl)amino)-3,5-dihydro-4H-imidazol-4-one], for which the half-maximal inhibitory concentration (IC50) is above 10000 nM.

For the molecule `O=C1NC(Nc2ccc3nccnc3c2)=N/C1=C\c1ccc2ncsc2c1` [Example 82, (Z)-5-(benzo[d]thiazol-6-ylmethylene)-2-(quinoxalin-6-ylamino)-3,5-dihydro-4H-imidazol-4-one], the IC50 is above 10000 nM.

Consider `CN(C1=N/C(=C\c2ccc3c(c2)OCCO3)C(=O)N1)c1ccc2ncsc2c1` [Example 84, (Z)-2-(benzo[d]thiazol-6-yl(methyl)amino)-5-((2,3-dihydrobenzo[b][1,4]dioxin-6-yl)methylene)-3,5-dihydro-4H-imidazol-4-one], for which the IC50 is above 10000 nM.

As to `O=C1NC(N(CCO)c2ccccc2)=N/C1=C\c1ccc2c(c1)OCO2` [Example 13, (Z)-5-(benzo[d][1,3]dioxol-5-ylmethylene)-2-((2-hydroxyethyl)(phenyl)amino)-3,5-dihydro-4H-imidazol-4-one], the IC50 was above 10000 nM.

Regarding `Cn1cnc2ccc(/C=C3\N=C(Nc4ccccc4)NC3=O)cc21` [Example 46, (Z)-5-((1-methyl-1H-benzo[d]imidazol-6-yl)methylene)-2-(phenylamino)-3,5-dihydro-4H-imidazol-4-one], the IC50 was in the range of 100 to 1000 nM.

With `CN(Cc1ccccc1)C1=N/C(=C\c2ccc3c(c2)OCO3)C(=O)N1` [Example 23, (Z)-5-(benzo[d][1,3]dioxol-5-ylmethylene)-2-(benzyl(methyl)amino)-3,5-dihydro-4H-imidazol-4-one], the IC50 is above 10000 nM.

For the molecule `CN(C1=N/C(=C\c2ccc3ncsc3c2)C(=O)N1)c1ccc2ncsc2c1` [Example 83, (Z)-2-(benzo[d]thiazol-6-yl(methyl)amino)-5-(benzo[d]thiazol-6-ylmethylene)-3,5-dihydro-4H-imidazol-4-one], the IC50 fell in the range of 100 to 1000 nM.

For the molecule `O=C1/C(=C/c2ccc3c(c2)OCO3)N=C(N(Cc2ccccc2)c2ccccc2)N1Cc1ccccc1` [Example 2, (Z)-5-(benzo[d][1,3]dioxol-5-ylmethylene)-3-benzyl-2-(benzyl(phenyl)amino)-3,5-dihydro-4H-imidazol-4-one], the IC50 is above 10000 nM.

For `O=C1NC(N(Cc2ccccc2)c2ccccc2)=N/C1=C\c1ccc2c(c1)OCO2` [Example 22, (Z)-5-(benzo[d][1,3]dioxol-5-ylmethylene)-2-(benzyl(phenyl)amino)-3,5-dihydro-4H-imidazol-4-one], the IC50 is above 10000 nM.
